PubChem BioAssay AID1996
Values after ≈ are worked out from the molar mass of the structure shown.

Settings: buffer; pH 7.4; 200.0 µM

`CC1CCCCN1C(=O)COC(=O)Cc1c[nH]c2ccccc12` (stereo not drawn) and `CS(=O)(=O)N(CC(=O)N1CCCCC1)Cc1ccccc1` cannot be ordered by solubility kinetic: greater than 47.2 µg/mL for the first, greater than 46.6 µg/mL for the second.

`CCCCNC(=O)CSc1nc(O)cc(=O)n1C1CCCC1` and `COc1ccc(-n2cnnc2SCC(=O)NC2CCCCC2)cc1` cannot be ordered by solubility kinetic: greater than 48.8 µg/mL for the first, greater than 52 µg/mL for the second.

`Cc1cc(=O)oc2cc(OCC(=O)N3CC[C@@]4(O)CCCC[C@H]4C3)ccc12` and `COc1ccc(C(=O)C2CCCN(C(=O)C3=CCCC3)C2)c(C)c1` (stereo not drawn) cannot be ordered by solubility kinetic: greater than 55.7 µg/mL for the first, greater than 49.1 µg/mL for the second.

First: O=C(Nc1ccc(N2CCOCC2)cc1)c1ccc([N+](=O)[O-])o1
Second: O=C(CN1C(=O)c2ccccc2C1=O)Nc1ccccc1N1CCOCC1
The solubility kinetic of the first is lower: 13.2 µg/mL (≈ 41.6 µM) for the first, greater than 54.8 µg/mL for the second.

Compared with `COc1ccc([N+](=O)[O-])cc1NC(=O)c1cccnc1`, `Cc1ccc(C(=O)Nc2ncccc2C)o1` is higher in solubility kinetic: 28.8 µg/mL (≈ 105 µM) for the first, greater than 32.4 µg/mL for the second.

Compared with `CCc1nc2ccccc2c(C(=O)Nc2cc(C)ccc2C)c1C`, `Cc1nc2ccc(OC(=O)c3ccccc3)cc2s1` is 16-fold lower in solubility kinetic: 45.6 µg/mL (≈ 143 µM) for the first, 2.9 µg/mL (≈ 10.8 µM) for the second.

`Cc1cccc(N2CCN(Cc3nc(CC4CC4)no3)CC2)n1` and `CC(C)NC(=O)c1ccc(CN2CCC(Cc3ccccc3)CC2)cc1` are within 1.5-fold of each other in solubility kinetic: 41.1 µg/mL (≈ 131 µM) for the first, 47.3 µg/mL (≈ 135 µM) for the second.

Compared with `COc1cccc(/C=C/c2[nH]c(=O)[nH]c(=O)c2[N+](=O)[O-])c1O`, `COc1cc2c(cc1OC)CN(c1ncccc1[N+](=O)[O-])CC2` is lower in solubility kinetic: greater than 45.8 µg/mL for the first, 5.6 µg/mL (≈ 17.8 µM) for the second.

Compared with `CC1(C)CC(NC(=O)c2cccc(Cl)c2)CC(C)(C)N1`, `O=C(Oc1cccc(Cl)c1)N1CCOCC1` is lower in solubility kinetic: greater than 44.2 µg/mL for the first, 34.8 µg/mL (≈ 144 µM) for the second.

`O=C(c1ccccc1)N1CCN(c2ncccn2)CC1` and `CS(=O)(=O)N(Cc1ccccc1Cl)c1ccc(C(=O)N2CCCC2)cc1` cannot be ordered by solubility kinetic: greater than 40.2 µg/mL for the first, 55.7 µg/mL (≈ 142 µM) for the second.

Going from `O=C(CCC(=O)N1CCCCCC1)Nc1ccc([N+](=O)[O-])cc1` to `CC(=O)Nc1ccc(S(=O)(=O)N2CCCC2)cc1`, the solubility kinetic rises from 9.2 µg/mL (≈ 28.8 µM) to greater than 40.2 µg/mL.

`CCOC(=O)N1CCN(S(=O)(=O)c2ccc3c4c(cccc24)C(=O)N3)CC1` and `CCC(C)C(=O)Nc1ccccc1N1CCN(c2ccc(F)cc2)CC1` (stereo not drawn) are within 1.5-fold of each other in solubility kinetic: 3.6 µg/mL (≈ 9.24 µM) for the first, 2.9 µg/mL (≈ 8.16 µM) for the second.

Going from `Cc1nnc(NC(=O)C2CC(=O)N(Cc3ccccc3)C2)s1` (stereo not drawn) to `C=CCc1c(Cl)nc(C)nc1NCc1ccccc1`, the solubility kinetic falls from greater than 47.5 µg/mL to 5.8 µg/mL (≈ 21.2 µM).

`CCN(CC)CC(O)CN1c2ccccc2Sc2ccccc21` (stereo not drawn) and `CCc1ccc(CN(C)C(C)C(=O)NCc2ccccc2)cc1` (stereo not drawn) are within 1.5-fold of each other in solubility kinetic: 44.4 µg/mL (≈ 135 µM) for the first, 36.5 µg/mL (≈ 118 µM) for the second.

Going from `COc1ccc(NC(=S)NC(=O)/C=C/c2ccc(F)cc2)cc1` to `COc1ccc(NC(=S)N(CCN(C)C)Cc2cccs2)cc1`, the solubility kinetic rises from less than 0.4 µg/mL to greater than 52.4 µg/mL.

First: O=C(Cc1ccc(Br)cc1)NC1CCCc2ccccc21 (stereo not drawn)
Second: O=C(NCc1csc(-c2ccccc2)n1)c1cc(F)cc2c1OCOC2
The solubility kinetic of the first is 3.8-fold lower: 1.5 µg/mL (≈ 4.36 µM) for the first, 5.7 µg/mL (≈ 15.4 µM) for the second.

Compared with `O=c1c2ccccc2nc(/C=C/c2ccccc2)n1-c1ccc(O)cc1`, `COc1ccc(C2Nc3ccccc3C(=O)N2Cc2ccccc2)cc1OC` (stereo not drawn) is lower in solubility kinetic: 1.6 µg/mL (≈ 4.7 µM) for the first, less than 0.4 µg/mL for the second.

`CC(C)CCN1CCN(C/C=C/c2ccco2)CC1CCO` (stereo not drawn) and `O=C(NCCCc1ccccc1)N1CCOCC1` cannot be ordered by solubility kinetic: 45.3 µg/mL (≈ 148 µM) for the first, greater than 37.2 µg/mL for the second.

First: CC(C)OC(=O)CC1C(=O)NCCN1C(=O)COc1ccc(C(C)(C)C)cc1 (stereo not drawn)
Second: CCn1c(C)cc(C(=O)COC(=O)c2cccnc2SC)c1C
The solubility kinetic of the first is 13-fold higher: 49.4 µg/mL (≈ 127 µM) for the first, 3.7 µg/mL (≈ 11.1 µM) for the second.

Going from `COc1cccc(-c2nc(-c3ccc(Br)o3)no2)c1` to `COC(=O)COc1ccc(-c2nccc(-c3ccccn3)n2)cc1`, the solubility kinetic rises from 0.5 µg/mL (≈ 1.56 µM) to 2.4 µg/mL (≈ 7.47 µM) (4.8-fold).

`O=C(O)c1cc2[nH]c3c(c2cc1Cl)CCCC3` and `O=C(O)/C=C/C(=O)Nc1ccc(Cl)c(C(=O)O)c1` cannot be ordered by solubility kinetic: greater than 37.5 µg/mL for the first, 38 µg/mL (≈ 141 µM) for the second.

Compared with `Clc1cc(Cl)cc(NC2=NCCS2)c1`, `CCCN(CC(=O)Nc1ccc(Cl)cc1Cl)C(=O)c1ccc(=O)[nH]c1` is higher in solubility kinetic: 8.8 µg/mL (≈ 35.6 µM) for the first, greater than 57.3 µg/mL for the second.

Going from `CC12CC3CC(C)(C1)CC(N)(C3)C2.Cl` to `Nc1nccnc1C(=O)OCC(=O)C12CC3CC(CC(C3)C1)C2`, the solubility kinetic falls from 29.4 µg/mL to 2.9 µg/mL (≈ 9.2 µM) (10-fold).

First: Cc1ccc(C(=O)NCCNC(=O)c2ccccn2)cc1
Second: CN(C)c1ccc(C(=O)/C=C/c2cccnc2)cc1
The solubility kinetic of the first is higher: greater than 42.5 µg/mL for the first, 6.7 µg/mL (≈ 26.6 µM) for the second.

`COc1ccc(CN2CCS(=O)(=O)CC2)cc1OC` and `COC(=O)CC(c1ccc(C#N)cc1)n1c(C)ccc1C` (stereo not drawn) cannot be ordered by solubility kinetic: greater than 42.8 µg/mL for the first, greater than 42.4 µg/mL for the second.

Compared with `O=C(Nc1ccc(F)cc1)c1ccccc1NC(=O)C1CC=CCC1C(=O)O` (stereo not drawn), `CN(CC(=O)NCc1ccco1)CC(=O)Nc1ccc(F)c(F)c1F` is lower in solubility kinetic: greater than 57.4 µg/mL for the first, 45.2 µg/mL (≈ 127 µM) for the second.

`CC1(C)CC(=O)C(C2=NC3(CCCCCC3)Cc3ccccc32)=C(O)C1` and `Cc1cc(C)nc(SCC(=O)Nc2nccs2)n1` cannot be ordered by solubility kinetic: 49.8 µg/mL (≈ 142 µM) for the first, greater than 42.1 µg/mL for the second.

First: CC(C)(C)CC(C)(C)NC(=O)/C=C/C(=O)O
Second: O=C(/C=C/C(=O)NCc1cccs1)NCc1cccs1
The solubility kinetic of the first is 49-fold higher: 29.1 µg/mL (≈ 128 µM) for the first, 0.6 µg/mL (≈ 1.96 µM) for the second.

Going from `S=C(NCc1cccc(Cl)c1)NCc1ccco1` to `CC1CCc2sc(C(=O)OCC(=O)NC(N)=O)cc2C1` (stereo not drawn), the solubility kinetic falls from 29.9 µg/mL (≈ 106 µM) to 2 µg/mL (≈ 6.75 µM) (15-fold).
